Reference: patent publication US8686044B2, “Amide derivative, pest control agent containing the amide derivative, and use of the amide derivative” (Mitsui Chemicals Agro, Inc., priority 2008, dated 2014)

Experiments:
Format in all cases: in vivo
Blattella germanica = assay: Pesticidal test against Blattella germanica (petri dish dry film); details: 24 h, concentration 100 ppm, female adults, examined after 1 day, 25° C., read-out: pesticidal rate
Procedure: Pesticidal Test against Blattella germanica
1 ml of an acetone solution in which a test compound had been prepared at a predetermined concentration was added dropwise to a petri dish having a diameter of 9 cm, and air-dried, and then the female adults of Blattella germanica were released and the petri dish was capped. They were left to stand in a thermostatic chamber at 25° C., and the numbers of the living pests and the dead pests were examined after 1 day. The test was carried out with five larvae per group in two replicates.

Adoxophyes honmai = assay: Pesticidal test against Adoxophyes honmai (artificial feed dip); details: 144 h, 2-stage larvae, examined after 6 days, 25° C., read-out: pesticidal rate; for pest or weed control at 1 ppm: concentration 1 ppm; for pest or weed control at 10 ppm: concentration 10 ppm
Method in brief: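 Second-instar larvae, five per group in duplicate, were released onto air-dried feed slices previously immersed for 30 s in compound solution at a set concentration. Mortality was scored on day 6 at 25° C.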

Spodoptera litura = assay: Pesticidal test against Spodoptera litura (cabbage leaf dip); details: foliar, 144 h, concentration 1 ppm, 2-stage larvae, examined after 6 days, 25° C., read-out: pesticidal rate
Method in brief: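 Cabbage leaf pieces dipped 30 seconds in compound solution at a predetermined concentration and air-dried, then offered to second-stage larvae, five per group in two replicates. Held at 25° C. Living and dead larvae counted after 6 days.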

Laodelphax striatellus = assay: Pesticidal test against Laodelphax striatellus (rice seedling spray); details: 144 h, concentration 100 ppm, 3-stage larvae, examined after 6 days, 25° C., read-out: pesticidal rate
Method in brief: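 Rice seedlings sprayed with 2.5 ml acetone solution of compound at a predetermined concentration, air-dried, then infested with third-stage Laodelphax striatellus larvae in capped water-containing tubes at 25 °C. Living and dead insects counted after 6 days; ten larvae per group, two replicates.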

Helicoverpa armigera = assay: Pesticidal test against Helicoverpa armigera (cabbage leaf disk dip); details: foliar, 72 h, concentration 1 ppm, 2-stage larvae, examined after 3 days, 25° C., read-out: pesticidal rate
Method in brief: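 Cabbage leaf disks were dipped for 30 s in test solution at a set concentration and air-dried. Second-instar larvae were placed one per hole and held at 25 °C, with live and dead counts taken after 3 days. Five larvae per group were tested in two replicates.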

Musca domestica = assay: Pesticidal test against Musca domestica (petri dish dry film); details: 24 h, concentration 100 ppm, female adults, examined after 1 day, 25° C., read-out: pesticidal rate
Method in brief: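 Female adult houseflies were confined at 25° C in capped 9 cm petri dishes coated with an air-dried film from 1 ml acetone solution of compound (predetermined concentration). Mortality was scored 1 day later, two replicates of five per group.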

Plutella xylostella = assay: Pesticidal test against Plutella xylostella (cabbage leaf dip); details: foliar, 144 h, concentration 1 ppm, 2-stage larvae, examined after 6 days, 25° C., read-out: pesticidal rate
Method in brief: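 Second-stage larvae (5 per group, two replicates) were released onto air-dried cabbage leaf discs that had been immersed for 30 seconds in compound solution at a set concentration. Mortality was scored after 6 days at 25° C.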

Choristoneura magnanima = assay: Pesticidal test against Choristoneura magnanima (artificial feed dip); details: 144 h, concentration 1 ppm, 2-stage larvae, examined after 6 days, 25° C., read-out: pesticidal rate
Method in brief: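 Second-stage larvae, five per group in duplicate, fed artificial diet that had been immersed 30 s in test solution at a predetermined concentration and air-dried. Mortality scored at day 6, 25° C.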

O=C(Nc1c(Br)cc(C(F)(C(F)(F)F)C(F)(F)C(F)(F)F)cc1C(F)(F)F)c1cccc(NC(=O)c2ccccc2F)c1 (stereo not shown) [6-347]
≥ 70%: pest or weed control at 100 ppm (Blattella germanica) | pest or weed control at 1 ppm (Adoxophyes honmai) | pest or weed control at 1 ppm (Spodoptera litura) | pest or weed control at 100 ppm (Laodelphax striatellus) | pest or weed control at 1 ppm (Helicoverpa armigera) | pest or weed control at 100 ppm (Musca domestica) | pest or weed control at 1 ppm (Plutella xylostella)

O=C(Nc1cccc(C(=O)Nc2c(Br)cc(C(F)(C(F)(F)F)C(F)(F)C(F)(F)F)cc2C(F)(F)F)c1)c1ccc(Cl)nc1 (stereo not shown) [6-389]
≥ 70%: pest or weed control at 100 ppm (Blattella germanica) | pest or weed control at 10 ppm (Adoxophyes honmai) | pest or weed control at 1 ppm (Spodoptera litura) | pest or weed control at 1 ppm (Helicoverpa armigera) | pest or weed control at 100 ppm (Musca domestica) | pest or weed control at 1 ppm (Plutella xylostella)

O=C(Nc1c(I)cc(C(F)(C(F)(F)F)C(F)(F)C(F)(F)F)cc1C(F)(F)F)c1cccc(NC(=O)c2ccccc2F)c1 (stereo not shown) [6-503]
≥ 70%: pest or weed control at 100 ppm (Blattella germanica) | pest or weed control at 1 ppm (Adoxophyes honmai) | pest or weed control at 1 ppm (Spodoptera litura) | pest or weed control at 100 ppm (Laodelphax striatellus) | pest or weed control at 1 ppm (Helicoverpa armigera) | pest or weed control at 100 ppm (Musca domestica) | pest or weed control at 1 ppm (Plutella xylostella)

O=C(Nc1c(I)cc(C(F)(C(F)(F)F)C(F)(F)C(F)(F)F)cc1C(F)(F)F)c1cccc(NC(=O)c2cccnc2Cl)c1 (stereo not shown) [6-538]
≥ 70%: pest or weed control at 100 ppm (Blattella germanica) | pest or weed control at 1 ppm (Adoxophyes honmai) | pest or weed control at 1 ppm (Spodoptera litura) | pest or weed control at 1 ppm (Helicoverpa armigera) | pest or weed control at 100 ppm (Musca domestica) | pest or weed control at 1 ppm (Plutella xylostella)

N#Cc1ccc(C(=O)Nc2cccc(C(=O)Nc3c(I)cc(C(F)(C(F)(F)F)C(F)(F)C(F)(F)F)cc3I)c2F)cc1 (stereo not shown) [6-1359]
≥ 70%: pest or weed control at 100 ppm (Blattella germanica) | pest or weed control at 1 ppm (Spodoptera litura) | pest or weed control at 100 ppm (Laodelphax striatellus) | pest or weed control at 1 ppm (Helicoverpa armigera) | pest or weed control at 100 ppm (Musca domestica) | pest or weed control at 1 ppm (Plutella xylostella)

O=C(Nc1cccc(C(=O)Nc2c(Br)cc(C(F)(C(F)(F)F)C(F)(F)F)cc2C(F)(F)F)c1F)c1cccc(F)c1 [6-1576]
≥ 70%: pest or weed control at 100 ppm (Blattella germanica) | pest or weed control at 1 ppm (Adoxophyes honmai) | pest or weed control at 1 ppm (Spodoptera litura) | pest or weed control at 100 ppm (Laodelphax striatellus) | pest or weed control at 1 ppm (Helicoverpa armigera) | pest or weed control at 100 ppm (Musca domestica) | pest or weed control at 1 ppm (Plutella xylostella)

N#Cc1cccc(C(=O)Nc2cccc(C(=O)Nc3c(Br)cc(C(F)(C(F)(F)F)C(F)(F)F)cc3C(F)(F)F)c2F)c1 [6-1594]
≥ 70%: pest or weed control at 100 ppm (Blattella germanica) | pest or weed control at 1 ppm (Adoxophyes honmai) | pest or weed control at 1 ppm (Spodoptera litura) | pest or weed control at 100 ppm (Laodelphax striatellus) | pest or weed control at 1 ppm (Helicoverpa armigera) | pest or weed control at 100 ppm (Musca domestica) | pest or weed control at 1 ppm (Plutella xylostella)

N#Cc1ccc(C(=O)Nc2cccc(C(=O)Nc3c(Br)cc(C(F)(C(F)(F)F)C(F)(F)F)cc3C(F)(F)F)c2F)cc1 [6-1595]
≥ 70%: pest or weed control at 100 ppm (Blattella germanica) | pest or weed control at 1 ppm (Choristoneura magnanima) | pest or weed control at 1 ppm (Spodoptera litura) | pest or weed control at 100 ppm (Laodelphax striatellus) | pest or weed control at 1 ppm (Helicoverpa armigera) | pest or weed control at 1 ppm (Plutella xylostella)

CN(C(=O)c1c(F)cccc1F)c1cccc(C(=O)Nc2c(I)cc(C(F)(C(F)(F)F)C(F)(F)F)cc2C(F)(F)F)c1 [7-446]
≥ 70%: pest or weed control at 100 ppm (Blattella germanica) | pest or weed control at 1 ppm (Spodoptera litura) | pest or weed control at 100 ppm (Laodelphax striatellus) | pest or weed control at 100 ppm (Musca domestica) | pest or weed control at 1 ppm (Plutella xylostella)

CN(C(=O)c1ccccc1F)c1cccc(C(=O)Nc2c(Br)cc(C(F)(C(F)(F)F)C(F)(F)F)cc2Br)c1F [7-1105]
≥ 70%: pest or weed control at 100 ppm (Blattella germanica) | pest or weed control at 1 ppm (Spodoptera litura) | pest or weed control at 100 ppm (Laodelphax striatellus) | pest or weed control at 100 ppm (Musca domestica) | pest or weed control at 1 ppm (Plutella xylostella)

CN(C(=O)c1ccc(C#N)cc1)c1cccc(C(=O)Nc2c(Br)cc(C(F)(C(F)(F)F)C(F)(F)F)cc2Br)c1F [7-1125]
≥ 70%: pest or weed control at 100 ppm (Blattella germanica) | pest or weed control at 1 ppm (Choristoneura magnanima) | pest or weed control at 1 ppm (Spodoptera litura) | pest or weed control at 100 ppm (Laodelphax striatellus) | pest or weed control at 1 ppm (Helicoverpa armigera) | pest or weed control at 1 ppm (Plutella xylostella)

CN(C(=O)c1c(F)cccc1F)c1cccc(C(=O)Nc2c(Br)cc(C(F)(C(F)(F)F)C(F)(F)F)cc2Br)c1F [7-1126]
≥ 70%: pest or weed control at 100 ppm (Blattella germanica) | pest or weed control at 1 ppm (Spodoptera litura) | pest or weed control at 100 ppm (Laodelphax striatellus) | pest or weed control at 100 ppm (Musca domestica) | pest or weed control at 1 ppm (Plutella xylostella)

CN(C(=O)c1c(F)cccc1F)c1cccc(C(=O)Nc2c(I)cc(C(F)(C(F)(F)F)C(F)(F)F)cc2I)c1F [7-1282]
≥ 70%: pest or weed control at 100 ppm (Blattella germanica) | pest or weed control at 1 ppm (Spodoptera litura) | pest or weed control at 100 ppm (Laodelphax striatellus) | pest or weed control at 100 ppm (Musca domestica) | pest or weed control at 1 ppm (Plutella xylostella)

CN(C(=O)c1cccnc1Cl)c1cccc(C(=O)Nc2c(I)cc(C(F)(C(F)(F)F)C(F)(F)F)cc2I)c1F [7-1296]
≥ 70%: pest or weed control at 100 ppm (Blattella germanica) | pest or weed control at 1 ppm (Spodoptera litura) | pest or weed control at 100 ppm (Laodelphax striatellus) | pest or weed control at 100 ppm (Musca domestica) | pest or weed control at 1 ppm (Plutella xylostella)

CN(C(=O)c1ccc(Cl)nc1)c1cccc(C(=O)Nc2c(I)cc(C(F)(C(F)(F)F)C(F)(F)C(F)(F)F)cc2I)c1F (stereo not shown) [7-1381]
≥ 70%: pest or weed control at 100 ppm (Blattella germanica) | pest or weed control at 1 ppm (Spodoptera litura) | pest or weed control at 100 ppm (Laodelphax striatellus) | pest or weed control at 100 ppm (Musca domestica) | pest or weed control at 1 ppm (Plutella xylostella)

CN(C(=O)c1ccccc1F)c1cccc(C(=O)Nc2c(Br)cc(C(F)(C(F)(F)F)C(F)(F)F)cc2C(F)(F)F)c1F [7-1575]
≥ 70%: pest or weed control at 100 ppm (Blattella germanica) | pest or weed control at 1 ppm (Spodoptera litura) | pest or weed control at 100 ppm (Laodelphax striatellus) | pest or weed control at 100 ppm (Musca domestica) | pest or weed control at 1 ppm (Plutella xylostella)

CN(C(=O)c1ccc(C#N)cc1)c1cccc(C(=O)Nc2c(Br)cc(C(F)(C(F)(F)F)C(F)(F)F)cc2C(F)(F)F)c1F [7-1595]
≥ 70%: pest or weed control at 100 ppm (Blattella germanica) | pest or weed control at 1 ppm (Choristoneura magnanima) | pest or weed control at 1 ppm (Spodoptera litura) | pest or weed control at 100 ppm (Laodelphax striatellus) | pest or weed control at 1 ppm (Helicoverpa armigera) | pest or weed control at 1 ppm (Plutella xylostella)

CN(C(=O)c1c(F)cccc1F)c1cccc(C(=O)Nc2c(Br)cc(C(F)(C(F)(F)F)C(F)(F)F)cc2C(F)(F)F)c1F [7-1596]
≥ 70%: pest or weed control at 100 ppm (Blattella germanica) | pest or weed control at 1 ppm (Spodoptera litura) | pest or weed control at 100 ppm (Laodelphax striatellus) | pest or weed control at 100 ppm (Musca domestica) | pest or weed control at 1 ppm (Plutella xylostella)

CN(C(=O)c1ccc(Cl)nc1)c1cccc(C(=O)Nc2c(Br)cc(C(F)(C(F)(F)F)C(F)(F)F)cc2C(F)(F)F)c1F [7-1617]
≥ 70%: pest or weed control at 100 ppm (Blattella germanica) | pest or weed control at 1 ppm (Choristoneura magnanima) | pest or weed control at 1 ppm (Spodoptera litura) | pest or weed control at 100 ppm (Laodelphax striatellus) | pest or weed control at 1 ppm (Helicoverpa armigera) | pest or weed control at 1 ppm (Plutella xylostella)

CN(C(=O)c1ccccc1F)c1cccc(C(=O)Nc2c(I)cc(C(F)(C(F)(F)F)C(F)(F)F)cc2C(F)(F)F)c1F [7-1731]
≥ 70%: pest or weed control at 100 ppm (Blattella germanica) | pest or weed control at 10 ppm (Adoxophyes honmai) | pest or weed control at 1 ppm (Spodoptera litura) | pest or weed control at 100 ppm (Laodelphax striatellus) | pest or weed control at 1 ppm (Helicoverpa armigera) | pest or weed control at 100 ppm (Musca domestica) | pest or weed control at 1 ppm (Plutella xylostella)

CN(C(=O)c1c(F)cccc1F)c1cccc(C(=O)Nc2c(I)cc(C(F)(C(F)(F)F)C(F)(F)F)cc2C(F)(F)F)c1F [7-1752]
≥ 70%: pest or weed control at 100 ppm (Blattella germanica) | pest or weed control at 1 ppm (Spodoptera litura) | pest or weed control at 100 ppm (Laodelphax striatellus) | pest or weed control at 100 ppm (Musca domestica) | pest or weed control at 1 ppm (Plutella xylostella)

CN(C(=O)c1cccnc1Cl)c1cccc(C(=O)Nc2c(I)cc(C(F)(C(F)(F)F)C(F)(F)F)cc2C(F)(F)F)c1F [7-1766]
≥ 70%: pest or weed control at 100 ppm (Blattella germanica) | pest or weed control at 1 ppm (Spodoptera litura) | pest or weed control at 100 ppm (Laodelphax striatellus) | pest or weed control at 100 ppm (Musca domestica) | pest or weed control at 1 ppm (Plutella xylostella)
